The values below come from patent publication US10975037B2 (priority 2018, dated 2021).

SMILES strings stand for the structures. Where two headings read alike, the source gives them in different places.

The target in one assay is full-length human RORγt (Homo sapiens (Human), UniProt P51449). The assay can be described thus: RORγt (full-length human) reporter assay, conditions A or B, HEK293T cells. It counts as cell-based. The following applies: for inhibition at 2 µM: 2 μM compound concentration; for inhibition at 6 µM: read-out: RORγt (FL) Reporter Assay A or B, % inhibition @ 6 μM; for inhibition at 3 µM: 3 μM compound concentration (footnote *). An outline of the steps: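 After 16–20 h, dual firefly/Renilla luciferase luminescence was read. Firefly signal was normalized to DMSO and saturating reference compound, then to Renilla, and fitted for IC50; % inhibition is versus DMSO.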
Chain of full-length human RORγt (P51449 other isoform, or with tags, fused parts or gaps): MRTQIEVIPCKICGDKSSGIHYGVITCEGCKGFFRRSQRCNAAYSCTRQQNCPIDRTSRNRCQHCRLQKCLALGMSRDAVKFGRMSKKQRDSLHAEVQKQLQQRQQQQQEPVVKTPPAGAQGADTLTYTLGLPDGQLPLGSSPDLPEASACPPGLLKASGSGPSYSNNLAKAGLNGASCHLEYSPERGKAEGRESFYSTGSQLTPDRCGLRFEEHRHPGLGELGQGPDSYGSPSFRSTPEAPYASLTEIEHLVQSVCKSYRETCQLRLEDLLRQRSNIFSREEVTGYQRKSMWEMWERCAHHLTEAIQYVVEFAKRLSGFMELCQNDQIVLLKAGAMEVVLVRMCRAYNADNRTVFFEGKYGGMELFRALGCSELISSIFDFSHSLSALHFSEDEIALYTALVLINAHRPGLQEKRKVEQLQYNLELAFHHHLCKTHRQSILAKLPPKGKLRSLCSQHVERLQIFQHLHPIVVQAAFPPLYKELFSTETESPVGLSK
(A reporter such as luciferase makes a cellular process visible.)

Assay [1] has as its target human RORγt ligand binding domain (RORγt LBD) (Homo sapiens (Human), UniProt P51449). As to the kind of experiment: RORγt ThermoFluor® assay (thermal shift binding). Summed up:
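Thermal shift with 0.065 mg/mL RORγt LBD and 60 μM 1,8-ANS in 100 mM Hepes pH 7.0, 10 mM NaCl, 2.5 mM GSH, 0.002% Tween-20.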
(In DSF a fluorescence change marks the thermal transition of the protein.)

The mark [2] stands for this setting: HEK-293T, read-out: RORγt (FL) Reporter Assay A or B, % inhibition.
The mark [3] stands for this setting: RORγt (FL) Reporter Assay A or B, IC50, HEK293T cells.
Where [4] appears, read: read-out: ThermoFluor® Assay, Kd.
Where [5] appears, read: HEK-293T, 6 μM compound concentration.
Setting [6] is: HEK-293T, 0.67 μM compound concentration (footnote ****), read-out: RORγt (FL) Reporter Assay A or B, % inhibition.

Chain of human RORγt ligand binding domain (RORγt LBD) (P51449 other isoform, or with tags, fused parts or gaps): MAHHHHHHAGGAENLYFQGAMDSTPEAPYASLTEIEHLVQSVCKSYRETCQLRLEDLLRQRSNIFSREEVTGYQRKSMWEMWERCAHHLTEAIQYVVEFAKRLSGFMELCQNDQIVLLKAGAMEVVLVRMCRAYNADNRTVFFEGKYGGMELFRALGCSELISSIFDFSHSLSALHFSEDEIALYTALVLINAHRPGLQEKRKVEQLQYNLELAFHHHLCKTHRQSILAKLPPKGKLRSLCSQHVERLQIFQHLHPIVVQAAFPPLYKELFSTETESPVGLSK

For `CCn1nc(C(=O)NC[C@]2(O)CC[C@@H](S(C)(=O)=O)CC2)c(Cl)c1-c1ccc(N[C@H](C)C(F)(F)F)cc1OC` [Example 24, 4-Chloro-1-ethyl-N-(((1s,4S)-1-hydroxy-4-(methylsulfonyl)cyclohexyl)methyl)-5-(2-methoxy-4-(((R)-1,1,1-trifluoropropan-2-yl)amino)phenyl)-1H-pyrazole-3-carboxamide], the inhibition at 2 µM at full-length human RORγt (setting [2]) was 104%. In addition, on full-length human RORγt (setting [3]), the half-inhibitory concentration (IC50) came to 52 nM. Also, the equilibrium dissociation constant (Kd) in assay [1] (setting [4]) was found to be 21 nM.

Regarding `CCn1nc(C(=O)NC[C@]2(O)CC[C@@H](S(C)(=O)=O)CC2)c(Cl)c1-c1ccc(CC(C)C)cc1OC` [Example 73, 4-Chloro-1-ethyl-N-(((1s,4s)-1-hydroxy-4-(methylsulfonyl)cyclohexyl)methyl)-5-(4-isobutyl-2-methoxyphenyl)-1H-pyrazole-3-carboxamide], the inhibition at 2 µM at full-length human RORγt (setting [2]) is 61%. Moreover, the concentration for half-maximal inhibition (IC50) against full-length human RORγt (setting [3]) was 11 nM. The Kd in assay [1] (setting [4]) is 0.63 nM.

For the molecule `CCn1nc(C(=O)NC[C@H]2CC[C@H](S(C)(=O)=O)CC2)c(C#N)c1-c1ccc(CC(C)C(F)(F)F)cc1OC` (stereo partly drawn) [Example 123, 4-Cyano-1-ethyl-5-(2-methoxy-4-(3,3,3-trifluoro-2-methylpropyl)phenyl)-N-(((1r,4r)-4-(methylsulfonyl)cyclohexyl)methyl)-1H-pyrazole-3-carboxamide], on full-length human RORγt (setting [2]), the inhibition at 2 µM amounted to 85%. In addition, on full-length human RORγt (setting [3]), the IC50 amounted to 35 nM. For the same molecule, the Kd in assay [1] (setting [4]) amounted to 9.6 nM.

As to `CCn1nc(C(=O)NC[C@H]2CC[C@H](S(C)(=O)=O)CC2)c(Cl)c1-c1ccc(CCC(F)(F)F)cc1OC` [Example 38, 4-Chloro-1-ethyl-5-(2-methoxy-4-(3,3,3-trifluoropropyl)phenyl)-N-(((1r,4r)-4-(methylsulfonyl)cyclohexyl)methyl)-1H-pyrazole-3-carboxamide], the inhibition at 0.67 µM on full-length human RORγt (setting [2]) is 84%. For the same molecule, the IC50 on full-length human RORγt (setting [3]) was 12 nM. Also, the Kd in assay [1] (setting [4]) is 3.3 nM.

Turning to `COc1cc(N[C@H](C)C(F)(F)F)ccc1-c1c(Cl)c(C(=O)NC[C@H]2CC[C@H](S(C)(=O)=O)CC2)nn1CC(C)(C)O` [Example 202, 4-Chloro-1-(2-hydroxy-2-methylpropyl)-5-(2-methoxy-4-(((R)-1,1,1-trifluoropropan-2-yl)amino)phenyl)-N-(((r,4R)-4-(methylsulfonyl)cyclohexyl)methyl)-1H-pyrazole-3-carboxamide], on full-length human RORγt (setting [5]), the inhibition at 6 µM is 93%. 850 nM corresponded to half-maximal inhibition against full-length human RORγt (setting [3]) (IC50). The dissociation constant (Kd) in assay [1] (setting [4]) is 180 nM.

As for `CCn1nc(C(=O)NC[C@H]2CC[C@H](S(C)(=O)=O)CC2)c(C)c1-c1ccc(CCCC(F)(F)F)cc1OC(F)F` [Example 78, 5-(2-(Difluoromethoxy)-4-(4,4,4-trifluorobutyl)phenyl)-1-ethyl-4-methyl-N-(((1r,4r)-4-(methylsulfonyl)cyclohexyl)methyl)-1H-pyrazole-3-carboxamide], the inhibition at […] at full-length human RORγt (HEK-293T, 0.22 μM compound concentration (footnote *******), read-out: RORγt (FL) Reporter Assay A or B, % inhibition) was found to be 93%. The molecule also displayed an IC50 against full-length human RORγt (setting [3]) of 12 nM. In assay [1] (setting [4]), the equilibrium dissociation constant (Kd) was 0.59 nM.

Regarding `CCn1nc(C(=O)NC[C@H]2CC[C@H](S(C)(=O)=O)CC2)c(Cl)c1-c1ccc(OC2CCC(F)(F)CC2)cc1OC` [Example 219, 4-Chloro-5-(4-((4,4-difluorocyclohexyl)oxy)-2-methoxyphenyl)-1-ethyl-N-(((1r,4r)-4-(methylsulfonyl)cyclohexyl)methyl)-1H-pyrazole-3-carboxamide], the inhibition at 0.67 µM on full-length human RORγt (setting [2]) worked out at 98%. In addition, inhibition at full-length human RORγt (setting [3]) was half-maximal at 30 nM (IC50). Also, in assay [1] (setting [4]), the equilibrium dissociation constant (Kd) came out at 9.9 nM.

As to `CCn1nc(C(=O)NC[C@]2(O)CC[C@@H](S(C)(=O)=O)CC2)c(Cl)c1-c1ccc(CCC(F)(F)F)cc1OC(F)F` [Example 221, 4-Chloro-5-(2-(difluoromethoxy)-4-(3,3,3-trifluoropropyl)phenyl)-1-ethyl-N-(((1s,4s)-1-hydroxy-4-(methylsulfonyl)cyclohexyl)methyl)-1H-pyrazole-3-carboxamide], on full-length human RORγt (setting [2]), the inhibition at 3 µM came out at 90%. The same molecule registered an IC50 against full-length human RORγt (setting [3]) of 9.3 nM. The equilibrium dissociation constant (Kd) in assay [1] (setting [4]) stood at 2.5 nM.

Consider `CC(C)(O)Cn1nc(C(=O)NC[C@H]2CC[C@H](S(C)(=O)=O)CC2)c(Cl)c1-c1ccc(CC(C)(C)C(F)(F)F)cc1OC(F)F` [Example 145, 4-Chloro-5-(2-(difluoromethoxy)-4-(3,3,3-trifluoro-2,2-dimethylpropyl)phenyl)-1-(2-hydroxy-2-methylpropyl)-N-(((1r,4r)-4-(methylsulfonyl)cyclohexyl)methyl)-1H-pyrazole-3-carboxamide], for which, on full-length human RORγt (setting [2]), the inhibition at 2 µM amounted to 105%. At full-length human RORγt (setting [3]), this molecule showed an IC50 of 13 nM. In addition, in assay [1] (setting [4]), the Kd is 2.5 nM.

As for `CCn1nc(C(=O)NC[C@]2(O)CC[C@@H](S(C)(=O)=O)CC2)c(Cl)c1-c1ccc(C2(O)CCC(F)(F)CC2)cc1OC(F)F` [Example 104, 4-Chloro-5-(4-(4,4-difluoro-1-hydroxycyclohexyl)-2-(difluoromethoxy)phenyl)-1-ethyl-N-(((1s,4s)-1-hydroxy-4-(methylsulfonyl)cyclohexyl)methyl)-1H-pyrazole-3-carboxamide], the inhibition at 3 µM on full-length human RORγt (setting [2]) turned out to be 98%. In addition, the midpoint of inhibition against full-length human RORγt (setting [3]), the IC50, lay at 220 nM. Further, the Kd in assay [1] (setting [4]) was determined as 47 nM.

Take `CCn1nc(C(=O)NC[C@H]2CC[C@H](S(C)(=O)=O)CC2)c(Cl)c1-c1ccc(NCC(F)(F)F)cc1OC` [Example 25, 4-Chloro-1-ethyl-5-(2-methoxy-4-((2,2,2-trifluoroethyl)amino)phenyl)-N-(((1r,4r)-4-(methylsulfonyl)cyclohexyl)methyl)-1H-pyrazole-3-carboxamide]: at full-length human RORγt (setting [5]), the inhibition at 6 µM came to 105%. The molecule further yielded an IC50 on full-length human RORγt (setting [3]) of 120 nM. Besides, the equilibrium dissociation constant (Kd) in assay [1] (setting [4]) stood at 31 nM.

Regarding `CCn1nc(C(=O)NC[C@]2(O)CC[C@H](S(C)(=O)=O)CC2)c(Cl)c1-c1ccc(N[C@H](C)C(F)(F)F)cc1OC` [Example 220, 4-Chloro-1-ethyl-N-(((1r,4R)-1-hydroxy-4-(methylsulfonyl)cyclohexyl)methyl)-5-(2-methoxy-4-(((R)-1,1,1-trifluoropropan-2-yl)amino)phenyl)-1H-pyrazole-3-carboxamide], the “RORγt (FL) Reporter Assay A or B, % inhibition @ 6 μM” value on full-length human RORγt (6 μM compound concentration) came out at 90%. On full-length human RORγt (HEK293T cells, read-out: RORγt (FL) Reporter Assay A or B, IC50), the IC50 stood at 1100 nM. Further, the Kd in assay [1] (setting [4]) turned out to be 430 nM.

As to `CCn1nc(C(=O)NC[C@@H]2CC[C@H](S(C)(=O)=O)CO2)c(Cl)c1-c1ccc(N[C@H](C)C(F)(F)F)cc1OC` (relative stereo) [Example 18, 4-Chloro-1-ethyl-5-(2-methoxy-4-(((R)-1,1,1-trifluoropropan-2-yl)amino)phenyl)-N-(((2S*,5S*)-5-(methylsulfonyl)tetrahydro-2H-pyran-2-yl)methyl)-1H-pyrazole-3-carboxamide], the inhibition at 6 µM on full-length human RORγt (setting [5]) stood at 102%. On full-length human RORγt (setting [3]), 830 nM corresponded to half-maximal inhibition (IC50). The Kd in assay [1] (ThermoFluor® Assay, Kd) was 240 nM.

Consider `CCn1nc(C(=O)NC[C@]2(C(N)=O)CC[C@@H](S(C)(=O)=O)CC2)c(Cl)c1-c1ccc(N[C@H](C)C(F)(F)F)cc1OC` [Example 35, N-(((1s,4S)-1-carbamoyl-4-(methylsulfonyl)cyclohexyl)methyl)-4-chloro-1-ethyl-5-(2-methoxy-4-(((R)-1,1,1-trifluoropropan-2-yl)amino)phenyl)-1H-pyrazole-3-carboxamide], for which, on full-length human RORγt (setting [5]), the inhibition at 6 µM came out at 102%. The molecule further had an IC50 on full-length human RORγt (setting [3]) of 730 nM. Further, in assay [1] (setting [4]), the Kd was found to be 34 nM.

For `CCn1nc(C(=O)NC[C@@H]2CC[C@@H](S(C)(=O)=O)CO2)c(Cl)c1-c1ccc(CC(C)(C)C(F)(F)F)cc1OC(F)F` (single isomer, unassigned) [Example 16, 4-Chloro-5-(2-(difluoromethoxy)-4-(3,3,3-trifluoro-2,2-dimethylpropyl)phenyl)-1-ethyl-N-(((2S*,5R*)-5-(methylsulfonyl)tetrahydro-2H-pyran-2-yl)methyl)-1H-pyrazole-3-carboxamide], the inhibition at 0.67 µM at full-length human RORγt (setting [6]) is 105%. At full-length human RORγt (setting [3]), this molecule showed a 50% inhibitory concentration (IC50) of 4.8 nM. Further, in assay [1] (ThermoFluor® Assay, Kd), the dissociation constant Kd was determined as 0.19 nM.

As for `CCCn1nc(C(=O)NC[C@H]2CC[C@H](S(C)(=O)=O)CC2)c(Cl)c1-c1ccc(C[C@@H](C)C(F)(F)F)cc1OC` (single isomer, unassigned) [Example 43, 4-Chloro-5-(2-methoxy-4-((R*)-3,3,3-trifluoro-2-methylpropyl)phenyl)-N-(((1r,4R)-4-(methylsulfonyl)cyclohexyl)methyl)-1-propyl-1H-pyrazole-3-carboxamide], the inhibition at 0.67 µM on full-length human RORγt (setting [6]) was found to be 99%. On full-length human RORγt (setting [3]), this molecule displayed a 50% inhibitory concentration (IC50) of 7 nM. Also, the dissociation constant Kd in assay [1] (ThermoFluor® Assay, Kd) turned out to be 0.21 nM.

Consider `CCn1nc(C(=O)NC[C@H]2CC[C@H](S(C)(=O)=O)CC2)c(Cl)c1-c1ccc(C[C@@H](C)C(F)(F)F)cc1OC` (single isomer, unassigned) [Example 1, 4-Chloro-1-ethyl-5-(2-methoxy-4-((R*)-3,3,3-trifluoro-2-methylpropyl)phenyl)-N-(((1r,4R)-4-(methylsulfonyl)cyclohexyl)methyl)-1H-pyrazole-3-carboxamide], for which the inhibition at 0.67 µM on full-length human RORγt (setting [6]) came to 99%. Besides, at full-length human RORγt (setting [3]), the midpoint of inhibition, the IC50, lay at 6 nM. Moreover, in assay [1] (ThermoFluor® Assay, Kd), the Kd is 0.6 nM.

In general, inhibition refers to the change of the read-out against control, counted positive when it falls. In general, IC50 refers to the concentration at which inhibition is half-maximal. A word on the Kd: it is the concentration at which binding is half-saturated.
